From patent publication US4977141A, “Peptidyl α-aminoacyl aminodiol carbamates as anti-hypertensive agents” (G. D. Searle & Co., priority 1987, dated 1990)
Square brackets hold non-standard residues; d marks the D form. Peptide text beside a SMILES is read from it. * marks the point of attachment. Sta = CC(C)C[C@H](N)[C@@H](O)CC(=O)O; Isovaleryl = CC(C)CC(=O)*

Experiments:
human renin = target: T1, human renin (Homo sapiens, UniProt P00797); test: human renin inhibition in vitro assay; assay type: biochemical; details: pH 7.4, 37° C., two hours, human plasma substrate
T1 construct: purchased National Institute for Biological Standards, London
T1 sequence (P00797 67-406): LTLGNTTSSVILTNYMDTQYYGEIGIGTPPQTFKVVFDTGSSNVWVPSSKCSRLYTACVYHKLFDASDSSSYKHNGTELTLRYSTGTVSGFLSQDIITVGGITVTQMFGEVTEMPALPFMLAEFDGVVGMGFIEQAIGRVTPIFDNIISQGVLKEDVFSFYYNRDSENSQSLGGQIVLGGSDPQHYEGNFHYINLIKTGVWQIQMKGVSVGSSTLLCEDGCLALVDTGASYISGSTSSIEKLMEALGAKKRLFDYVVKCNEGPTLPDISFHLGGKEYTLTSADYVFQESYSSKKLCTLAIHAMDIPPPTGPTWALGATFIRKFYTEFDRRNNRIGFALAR
Procedure: Compounds of Formula I were evaluated as inhibitors of human renin in an in vitro assay, as follows: This human renin inhibition test has been previously described in detail [Papaioannou, et. al., Clinical and Experimental Hypertension, A7(9), 1243-1257 (1985)]. Human renin was obtained from the National Institute for Biological Standards, London. In a total volume of 0.25 mL 100 mM Tris-acetate buffer at PH 7.4, 25×10^-6 Goldblatt units of renin, 0.05 mL of plasma from human volunteers taking oral contraceptives, 6.0 mM sodium EDTA, 2.4 mM phenylmethyl sulfonyl fluoride, 1.5 mM 8-hydroxyquinoline, 0.4 mg/mL BSA, and 0.024 mg/mL neomycin sulfate were incubated for two hours at 37° C. in the presence or absence of renin inhibitors. The produced angiotensin I was determined by radioimmunoassay (New England Nuclear kit). Dipeptide glycols to be assayed were solubilized in either ethyl alcohol or DMSO and diluted with 100 mM Tris-acetate buffer at pH 7.4 to the appropriate concentration. The final concentration of organic solvent in the reaction mixture was less than 1%. Control incubations at 37° C. were used to correct for effects of organic solvent on renin activity.

hog renin = target: T2, hog renin (Sus scrofa, UniProt A0A287APG1); test: hog renin inhibition assay; assay type: biochemical; details: pH 7.4, 37° C., one hour, synthetic tetradecapeptide substrate
T2 construct: purchased Sigma Chemical Co
T2 sequence (A0A287APG1 24-407): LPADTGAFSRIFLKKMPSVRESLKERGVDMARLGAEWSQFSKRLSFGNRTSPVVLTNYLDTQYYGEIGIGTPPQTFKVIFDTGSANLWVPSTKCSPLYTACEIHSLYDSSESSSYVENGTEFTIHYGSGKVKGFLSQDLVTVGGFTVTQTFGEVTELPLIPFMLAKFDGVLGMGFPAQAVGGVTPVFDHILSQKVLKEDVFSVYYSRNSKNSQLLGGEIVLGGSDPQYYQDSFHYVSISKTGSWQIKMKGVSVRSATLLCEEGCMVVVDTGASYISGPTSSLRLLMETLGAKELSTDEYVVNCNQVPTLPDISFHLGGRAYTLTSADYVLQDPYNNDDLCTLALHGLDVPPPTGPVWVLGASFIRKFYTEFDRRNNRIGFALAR
Procedure: The hog renin inhibition assay was conducted in a manner similar to the human resin assay, with the following modification: Hog renin was purchased from Sigma Chemical Co. and the synthetic tetradecapeptide substrate was obtained from peninsula Labs Inc. In a final volume of 0.25 mL 100 mM Tris-acetate buffer at pH 7.4, 0.125 m units hog renin, 20 micromolar tetradecapeptide, 6 mM disodium EDTA, 3.2 mM phenylmethyl sulfonyl fluoride, 3 mM 8-hydroxyquinoline, 1.2 mg/mL BSA and 0.024 mg/mL neomycin sulfate were incubated for one hour at 37° C. in the presence or absence of renin inhibitors. The amount of angiotensin I produced was determined as for the human renin inhibition assay.

[1] = test system: plasma renin activity (PRA); test: plasma renin activity (PRA) reduction in Rhesus monkeys, intravenous; details: Macaca mulatta, 0.25 h, furosemide pre-treated Rhesus monkeys, dose reducing PRA to 50% of pretreatment control, read-out: Rhesus (in vivo) PRA Reduction ED50
Procedure: The effect of inhibitor on plasma renin activity (PRA) in Rhesus monkeys was determined as follows: Rhesus monkeys were pre-treated with furosemide (0.2 mg/kg; i.m.) followed by another equal does 6 hours later. Then, 24 hours after the first treatment, the animals were chaired and blood samples collected for pre-treatment controls; immediately thereafter dosing with drug was started. The compounds were administered intravenously every 30 min and blood samples were collected 15 min after each administration. PRA was determined by the method of Sealey and Laragh Cardiovascular Med. 2, 1079-1092 (1977), and the concentration of angiotensin I produced was determined by radioimmunoassay.

Plasma Renin Activity = Plasma Renin Activity of Sodium-Depleted Marmoset, oral activity; assay type: in vivo, Common marmosets (Callithrix jacchus); details: 20 mg/kg IG
Procedure: The oral activity of compounds of Formula I was determined in vivo in Marmoset monkeys in accordance with the following procedure: Common marmosets (Callithrix jacchus, Charles River) were placed on a modified high protein low sodium diet (Purina, St. Louis, Mo.) for 1 to 2 weeks. On the day of the test an animal was anesthetized with isoflurane and cannulated in the femoral artery and vein for blood pressure monitoring, intravenous saralasin infusion and blood sampling. After allowing the animal to recover from surgery for 2 hr, saralasin was infused at 1 microgram/min for 15 minutes to confirm that the animal's blood pressure was dependent on angiotensin II levels. The marmoset was allowed to stabilize for 30 min after the saralasin infusion. The test compound was administered orally and blood pressure was monitored for 2 hr. Blood samples were taken in K-EDTA for plasma renin activity before, 30 min, and 1 hr after compound administration.

blood pressure = details: after the injection of hog renin into nephrectomized rats; cited from earlier work
[2] = test system: aspartyl proteases such as pepsin, cathepsin D and renin; details: cited from earlier work

Question: With `CC(C)C[C@H](NC(=O)[C@H](Cc1ccccc1)OC(=O)N1CCOCC1)C(=O)N[C@@H](CC1CCCCC1)[C@@H](O)CO` [Example 11, O-(N-morpholinocarbonyl)-3-L-phenyllactyl-L-leucinamide of (2S, 3R)-2-amino-1-cyclohexyl-3,4-dihydroxybutane] as the compound, how does the IC50 (human renin) read?
Answer: 490 nM

Question: What about the IC50 (hog renin) of the same compound?
Answer: 7.2 µM

Question: What about the ED50 [1] of the same compound?
Answer: 1.6 mg/kg

Question: And the “Plasma Renin Activity” value (Plasma Renin Activity; 30 min, Animal No. 205)?
Answer: 0.6 ng AI/ml/hr

Question: What about the “Plasma Renin Activity” value (Plasma Renin Activity; 30 min, Animal No. 209) of the same compound?
Answer: 1.1 ng AI/ml/hr

Question: And the “Plasma Renin Activity” value (Plasma Renin Activity; 30 min, Animal No. 221)?
Answer: 48.5 ng AI/ml/hr

Question: And the “Plasma Renin Activity” value (Plasma Renin Activity; 60 min, Animal No. 205)?
Answer: 4.5 ng AI/ml/hr

Question: What about the “Plasma Renin Activity” value (Plasma Renin Activity; 60 min, Animal No. 209) of the same compound?
Answer: 0.0 ng AI/ml/hr

Question: What about the “Plasma Renin Activity” value (Plasma Renin Activity; 60 min, Animal No. 221) of the same compound?
Answer: 24.9 ng AI/ml/hr

Question: What about the “Plasma Renin Activity” value (Plasma Renin Activity; Pretreatment, Animal No. 205) of the same compound?
Answer: 17.5 ng AI/ml/hr

Question: And the “Plasma Renin Activity” value (Plasma Renin Activity; Pretreatment, Animal No. 209)?
Answer: 39.3 ng AI/ml/hr

Question: What about the “Plasma Renin Activity” value (Plasma Renin Activity; Pretreatment, Animal No. 221) of the same compound?
Answer: 37.6 ng AI/ml/hr

Question: With `CC(C)C[C@H](NC(=O)[C@H](Cc1ccccc1)OC(=O)N1CCOCC1)C(=O)N[C@@H](CC1CCCCC1)[C@@H](O)[C@@H](O)CC(C)C` [Example 6, O-(N-morpholinocarbonyl)-3-L-phenyllactyl-L-leucinamide of (2S,3R,4S)-2-amino-1-cyclohexyl-3,4-dihydroxy-6-methylheptane] as the compound, how does the IC50 (human renin) read?
Answer: 70 nM

Question: What about the IC50 (hog renin) of the same compound?
Answer: 0.16 µM

Question: And the ED50 [1]?
Answer: 0.012 mg/kg

Question: And the “Plasma Renin Activity” value (Plasma Renin Activity; 30 min, Animal No. 206)?
Answer: 2.2 ng AI/ml/hr

Question: What about the “Plasma Renin Activity” value (Plasma Renin Activity; 30 min, Animal No. 207) of the same compound?
Answer: 0.2 ng AI/ml/hr

Question: What about the “Plasma Renin Activity” value (Plasma Renin Activity; 30 min, Animal No. 208) of the same compound?
Answer: 1.0 ng AI/ml/hr

Question: And the “Plasma Renin Activity” value (Plasma Renin Activity; 60 min, Animal No. 206)?
Answer: 0.6 ng AI/ml/hr

Question: What about the “Plasma Renin Activity” value (Plasma Renin Activity; 60 min, Animal No. 207) of the same compound?
Answer: 0.9 ng AI/ml/hr

Question: What about the “Plasma Renin Activity” value (Plasma Renin Activity; 60 min, Animal No. 208) of the same compound?
Answer: 2.0 ng AI/ml/hr

Question: What about the “Plasma Renin Activity” value (Plasma Renin Activity; Pretreatment, Animal No. 206) of the same compound?
Answer: 16.3 ng AI/ml/hr

Question: And the “Plasma Renin Activity” value (Plasma Renin Activity; Pretreatment, Animal No. 207)?
Answer: 16.4 ng AI/ml/hr

Question: What about the “Plasma Renin Activity” value (Plasma Renin Activity; Pretreatment, Animal No. 208) of the same compound?
Answer: 15.7 ng AI/ml/hr

Question: For `CC(C)CC(=O)N[C@H](C(=O)N[C@H](C(=O)N[C@@H](CC(C)C)[C@@H](O)CC(=O)N[C@@H](C)C(=O)N[C@@H](CC(C)C)[C@@H](O)CC(=O)O)C(C)C)C(C)C` [pepstatin] (Isovaleryl-VV[Sta]A[Sta]-OH), which “blood pressure reduction in vivo” value (blood pressure) is on record?
Answer: reduce blood pressure in vivo

Question: What about the “inhibition of aspartyl proteases” value [2] of the same compound?
Answer: inhibitor of aspartyl proteases

Question: Which results are given for `CC(C)C[C@H](NC(=O)[C@H](Cc1ccccc1)OC(=O)N1CCOCC1)C(=O)N[C@@H](CC1CCCCC1)[C@@H](O)[C@H](C)O` [Example 9, O-(N-morpholinocarbonyl)-3-L-phenyllactyl-L-leucinamide of (2S,3R,4S)-2-amino-1-cyclohexyl-3,4-dihydroxypentane]?
Answer: IC50 (human renin): 100 nM; IC50 (hog renin): 6.6 µM
